In data set [1] the target is T1, recombinant human GST-SYK (Homo sapiens, UniProt P43405).
T1 construct: purchased Carna Biosciences 08-176
As to the kind of experiment: Homogeneous Time-Resolved Fluorescence (HTRF) assay for the recombinant human Syk enzyme. In kind it is biochemical. To be noted: 5 pM GST-SYK, 25 μM ATP, 10-dose titration. The procedure: Biological Assay Homogeneous Time-Resolved Fluorescence (HTRF) Assay for the Recombinant Human Syk Enzyme
A recombinant GST-hSYK fusion protein was used to measure potency of compounds to inhibit human Syk activity. […] Final volume of the reaction was 10 μL. Phosphorylation of the peptide was allowed to proceed for 45′ at room temperature. To quench the reaction and detect the phosphorylated product, 2 nM of a Europium-anti-phosphotyrosine antibody (Perkin Elmer #AD0161) and 70 nM SA-APC (Perkin-Elmer #CR130-100) were added together in 15 mM Tris pH 7.5, 40 mM EDTA, 0.01% tween 20. Final volume of the quenching solution was 10 μL. The resulting HTRF signal was measured after 30 minutes on an EnVision (Perkin-Elmer) reader using a time-resolved fluorescence protocol.
In general terms: In TR-FRET formats the signal depends on donor and acceptor labels being close together.

In data set [2] the test system is allergic rhinitis. To be noted: dosed intranasally, phase I/II study; cited from earlier work.
Data set [3] relates to allergic rhinitis. To be noted: phase II clinical trial; cited from earlier work.

Like-named read-outs stand apart in the source and are kept apart here.

On to `CCCC(N)CNc1cc(Nc2cccc(C)n2)c(C(N)=O)cn1` (racemic) [Example 2.11, 6-[(2-aminopentyl)amino]-4-[(6-methylpyridin-2-yl)amino]pyridine-3-carboxamide], for which the IC50 in data set [1] (read-out: rhSYK Activity) fell in the range of 10 to 100 nM.

In the case of `NC(=O)c1cnc(N[C@@H]2CCCC[C@@H]2N)cc1Nc1cccc(C(F)(F)F)n1` [Example 1.1, 6-{[(1R,2S)-2-aminocyclohexyl]amino}-4-{[6-(trifluoromethyl)pyridin-2-yl]amino}pyridine-3-carboxamide], the IC50 was 3.5 nM in data set [1] (read-out: IC50) and less than 10 nM in data set [1] (read-out: rhSYK Activity).

Consider `Cc1cc(C)nc(Nc2cc(NCCN)ncc2C(N)=O)c1` [Example 2.2, 6-[(2-aminoethyl)amino]-4-[(4,6-dimethylpyridin-2-yl)amino]pyridine-3-carboxamide], for which the IC50 in data set [1] (read-out: rhSYK Activity) lay in the range of 10 to 100 nM.

Turning to `Cc1cc(C)nc(Nc2cc(NCC(N)C(F)(F)F)ncc2C(N)=O)c1` (racemic) [Example 2.3, 6-[(2-amino-3,3,3-trifluoropropyl)amino]-4-[(4,6-dimethylpyridin-2-yl)amino]pyridine-3-carboxamide], the IC50 is 3500 nM in data set [1] (read-out: IC50) and 1000 to 10000 nM in data set [1] (read-out: rhSYK Activity).

As to `C[C@H](N)CNc1cc(Nc2cc(-c3cnn(C)c3)cc(-c3cnn(C)c3)n2)c(C(N)=O)cn1` [Example 1.8, 6-{[(2S)-2-aminopropyl]amino}-4-{[4,6-bis(1-methyl-1H-pyrazol-4-yl)pyridin-2-yl]amino}pyridine-3-carboxamide], the IC50 in data set [1] (read-out: rhSYK Activity) was less than 10 nM.

Consider `Oc1cccc(Nc2ncc(F)c(Nc3cccc(O)c3)n2)c1` [Example R112], for which, in the data set on allergic rhinitis [2], the PGD2 result is on record as “statistically significant decrease” and the clinical safety result is “safe across a range of indicators”. The efficacy versus placebo entry in the data set with allergic rhinitis [3] is given as “lack of efficacy versus placebo”.

As to `NC(=O)c1cnc(N[C@@H]2CCCC[C@@H]2N)cc1Nc1cccc(-n2nccn2)n1` [Example 1.4, 6-{[(1R,2S)-2-aminocyclohexyl]amino}-4-{[6-(2H-1,2,3-triazol-2-yl)pyridin-2-yl]amino}pyridine-3-carboxamide], the IC50 in data set [1] (read-out: rhSYK Activity) is less than 10 nM.

As to `Cc1cc(C)nc(Nc2cc(N[C@@H]3[C@H](N)CCCC3(F)F)ncc2C(N)=O)c1` [Example 3.2, 6-{[(1R,6R)-6-amino-2,2-difluorocyclohexyl]amino}-4-[(4,6-dimethylpyridin-2-yl)amino]pyridine-3-carboxamide], the results for the IC50 in data set [1] (read-out: IC50) and in data set [1] (read-out: rhSYK Activity) were 510 nM and 100 to 1000 nM, respectively.

Take `Cc1cc(C)nc(Nc2cc(NCC3(N)CCOCC3)ncc2C(N)=O)c1` [Example 2.5]: the IC50 in data set [1] (read-out: rhSYK Activity) lay within 1000 to 10000 nM.

As for `Cc1cccc(Nc2cc(NCCN)ncc2C(N)=O)n1` [Example 1.3, 6-[(2-aminoethyl)amino]-4-[(6-methylpyridin-2-yl)amino]pyridine-3-carboxamide], the figures for the IC50 in data set [1] (read-out: IC50) and in data set [1] (read-out: rhSYK Activity) were 170 nM and 100 to 1000 nM, respectively.

`Cc1cc(C)nc(Nc2cc(N[C@H]3[C@@H](N)CCCC3(F)F)ncc2C(N)=O)c1` [Example 3.3, 6-{[(1S,6S)-6-amino-2,2-difluorocyclohexyl]amino}-4-[(4,6-dimethylpyridin-2-yl)amino]pyridine-3-carboxamide]: the IC50 in data set [1] (read-out: rhSYK Activity) lay within 10 to 100 nM.

Regarding `Cc1cccc(Nc2cc(N[C@@H]3CCCC[C@H]3N)ncc2C(N)=O)n1` (relative stereo) [Example 2.8, rel-6-{[(1R,2R)-2-aminocyclohexyl]amino}-4-[(6-methylpyridin-2-yl)amino]pyridine-3-carboxamide], the IC50 in data set [1] (read-out: rhSYK Activity) was in the range of 100 to 1000 nM.

In the case of `Cc1cccc(Nc2cc(N[C@@H]3CCCC[C@@H]3N)ncc2C(N)=O)n1` [Example 1.2, 6-{[(1R,2S)-2-aminocyclohexyl]amino}-4-[(6-methylpyridin-2-yl)amino]pyridine-3-carboxamide], the IC50 in data set [1] (read-out: IC50) was 4.5 nM; in data set [1] (read-out: rhSYK Activity) it was 10 to 100 nM.

For `Cc1cc(C)nc(Nc2cc(N[C@@H]3COC[C@H]3N)ncc2C(N)=O)c1` (relative stereo) [Example 2.4, rel-6-{[(3S,4S)-4-aminotetrahydrofuran-3-yl]amino}-4-[(4,6-dimethylpyridin-2-yl)amino]pyridine-3-carboxamide], the IC50 in data set [1] (read-out: rhSYK Activity) was 1000 to 10000 nM.

For `Cc1cc(C)nc(Nc2cc(NC(C)CN)ncc2C(N)=O)c1` (racemic) [Example 2.10, 6-[(2-amino-1-methylethyl)amino]-4-[(4,6-dimethylpyridin-2-yl)amino]pyridine-3-carboxamide], the IC50 in data set [1] (read-out: IC50) is 3200 nM; in data set [1] (read-out: rhSYK Activity) it was 1000 to 10000 nM.

For `Cc1nc(Nc2cc(NC[C@H](C)N)ncc2C(N)=O)ccc1-c1cnn(C)c1` [Example 1.9, 6-{[(2S)-2-aminopropyl]amino}-4-{[6-methyl-5-(1-methyl-1H-pyrazol-4-yl)pyridin-2-yl]amino}pyridine-3-carboxamide], the IC50 in data set [1] (read-out: rhSYK Activity) is less than 10 nM.

As for `Cc1cc(C)nc(Nc2cc(NCC3(N)CCOC3)ncc2C(N)=O)c1` (racemic) [Example 2.6, 6-{[(3-aminotetrahydrofuran-3-yl)methyl]amino}-4-[(4,6-dimethylpyridin-2-yl)amino]pyridine-3-carboxamide], the IC50 in data set [1] (read-out: rhSYK Activity) is 1000 to 10000 nM.

In the case of `CCC(N)CNc1cc(Nc2cccc(C)n2)c(C(N)=O)cn1` (centres unmarked) [Example 2.1, 6-[(2-aminobutyl)amino]-4-[(6-methylpyridin-2-yl)amino]pyridine-3-carboxamide], the IC50 in data set [1] (read-out: rhSYK Activity) fell in the range of 100 to 1000 nM.

As for `Cc1cc(C)nc(Nc2cc(NC[C@H](C)N)ncc2C(N)=O)c1` [Example 3.1, 6-{[(2S)-2-aminopropyl]amino}-4-[(4,6-dimethylpyridin-2-yl)amino]pyridine-3-carboxamide], in data set [1] (read-out: rhSYK Activity), the IC50 fell in the range of 10 to 100 nM.

With `Cc1cccc(Nc2cc(NCC(N)C3CC3)ncc2C(N)=O)n1` (racemic) [Example 2.12, 6-[(2-amino-2-cyclopropylethyl)amino]-4-[(6-methylpyridin-2-yl)amino]pyridine-3-carboxamide], the IC50 in data set [1] (read-out: rhSYK Activity) was 100 to 1000 nM.

As for `Cc1nc(Nc2cc(N[C@@H]3CCCC[C@@H]3N)ncc2C(N)=O)ccc1F` [Example 1.7, 6-{[(1R,2S)-2-aminocyclohexyl]amino}-4-[(5-fluoro-6-methylpyridin-2-yl)amino]pyridine-3-carboxamide], the IC50 in data set [1] (read-out: rhSYK Activity) lay within 10 to 100 nM.

Take `NC(=O)c1cnc(N[C@@H]2CCCC[C@@H]2N)cc1Nc1ccc2ccccc2n1` [Example 1.6, 6-{[(1R,2S)-2-aminocyclohexyl]amino}-4-(quinolin-2-ylamino)pyridine-3-carboxamide]: the IC50 in data set [1] (read-out: IC50) is 5.8 nM; in data set [1] (read-out: rhSYK Activity) it was less than 10 nM.

For the molecule `Cc1nc(Nc2cc(NCCN)ncc2C(N)=O)ccc1Br` [Example 2.13, 6-[(2-aminoethyl)amino]-4-[(5-bromo-6-methylpyridin-2-yl)amino]pyridine-3-carboxamide], the IC50 in data set [1] (read-out: IC50) was 66 nM; in data set [1] (read-out: rhSYK Activity) it was 10 to 100 nM.

Take `COC[C@H](N)CNc1cc(Nc2cccc(C)n2)c(C(N)=O)cn1` [Example 2.7, 6-{[(2R)-2-amino-3-methoxypropyl]amino}-4-[(6-methylpyridin-2-yl)amino]pyridine-3-carboxamide]: the IC50 in data set [1] (read-out: rhSYK Activity) is 100 to 1000 nM.

With `CCC(C)(N)CNc1cc(Nc2cccc(C)n2)c(C(N)=O)cn1` (racemic) [Example 2.9, 6-[(2-amino-2-methylbutyl)amino]-4-[(6-methylpyridin-2-yl)amino]pyridine-3-carboxamide], in data set [1] (read-out: rhSYK Activity), the IC50 is 100 to 1000 nM.

(Values after patent US8987456B2, “3-pyridyl carboxamide-containing spleen tyrosine kinase (SYK) inhibitors” (Merck Sharp & Dohme Corp., priority 2011, dated 2015).)
